Assay results taken from patent US8013153B2, “Substituted pyrimidine kinase inhibitors” (Janssen Pharmaceutica, N.V., priority 2006, dated 2011).

Experiments:
CDK1:Cyclin-B = target: T1, CDK1:Cyclin-B (Homo sapiens, UniProt P06493); assay: CDK1 Screening Assay; format: biochemical
T1 construct: purchased New England Biolabs, Beverly, Mass; 6020; host or cells: insect cells

[1] = tested on: HeLa cervical adenocarcinoma; assay: Inhibition of in vitro cell proliferation (HeLa); format: cell-based, human; settings: Homo sapiens, 14C-thymidine incorporation;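 note: cells exposed to compound for 24 h, then labelled 24 h with methyl 14C-thymidine, with uptake into DNA counted by scintillation against DMSO-only control wells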
murine Aurora-A = target: T2, murine Aurora-A (Mus musculus, UniProt P97477); assay: Aurora-A Screening Assay; format: biochemical
T2 construct: replaced with the full length protein encoding the murine Aurora-A; made in house; host or cells: sf9 insect cells
T2 sequence (P97477 1-395): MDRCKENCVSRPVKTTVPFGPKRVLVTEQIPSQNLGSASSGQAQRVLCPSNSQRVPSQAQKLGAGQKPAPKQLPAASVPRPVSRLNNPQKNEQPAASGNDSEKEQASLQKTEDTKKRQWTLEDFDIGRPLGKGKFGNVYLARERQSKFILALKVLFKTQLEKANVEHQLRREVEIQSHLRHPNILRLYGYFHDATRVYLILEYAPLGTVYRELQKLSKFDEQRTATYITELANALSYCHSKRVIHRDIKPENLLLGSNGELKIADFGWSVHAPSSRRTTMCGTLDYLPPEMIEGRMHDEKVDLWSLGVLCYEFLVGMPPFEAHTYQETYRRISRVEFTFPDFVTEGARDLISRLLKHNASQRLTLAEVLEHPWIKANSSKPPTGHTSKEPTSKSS

[2] = target: T3, rat VEGF-R2 kinase domain (Rattus norvegicus, UniProt O08775); assay: VEGF-R2 Screening Assay; format: biochemical; settings: > means no observed 50% inhibition at the indicated test concentration; ~ means approximately 50% inhibition at that concentration; read-out: IC50 VEGF-R2
T3 construct: amino acids 786-1343 of the rat VEGF-R2 kinase domain; polyhistidine (N)

HCT-116 colon carcinoma = assay: Inhibition of in vitro cell proliferation (HCT116); format: cell-based, human; settings: Homo sapiens, HCT-116, 14C-thymidine incorporation;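 note: cells exposed to compound for 24 h, then 14C-thymidine added for a further 24 h and its uptake into DNA counted by scintillation, DMSO-only wells as control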
A375 malignant melanoma = assay: Inhibition of in vitro cell proliferation (A375); format: cell-based, human; settings: Homo sapiens, A-375, 14C-thymidine incorporation;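 note: cells plated for 24 h, given compound for 24 h, then labelled with 14C-thymidine for another 24 h, with DMSO-only wells as control and counts read by scintillation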
HER2 cytoplasmic domain = target: T4, HER2 cytoplasmic domain (Homo sapiens, UniProt P04626); assay: HER2 Kinase Screening Assay; format: biochemical; settings: > means no observed 50% inhibition at the indicated test concentration; ~ means approximately 50% inhibition at that concentration
T4 construct: polyhistidine (N)

RET cytoplasmic domain = target: T5, RET cytoplasmic domain (Homo sapiens, UniProt P07949); assay: RET Kinase Screening Assay; format: biochemical
T5 construct: the RET cytoplasmic domain consisting of the last 492 amino acids of the intracellular domain; histidine tag (N); made in house; host or cells: Hi5 insect cells
T5 sequence (P07949 658-1114 limits assumed): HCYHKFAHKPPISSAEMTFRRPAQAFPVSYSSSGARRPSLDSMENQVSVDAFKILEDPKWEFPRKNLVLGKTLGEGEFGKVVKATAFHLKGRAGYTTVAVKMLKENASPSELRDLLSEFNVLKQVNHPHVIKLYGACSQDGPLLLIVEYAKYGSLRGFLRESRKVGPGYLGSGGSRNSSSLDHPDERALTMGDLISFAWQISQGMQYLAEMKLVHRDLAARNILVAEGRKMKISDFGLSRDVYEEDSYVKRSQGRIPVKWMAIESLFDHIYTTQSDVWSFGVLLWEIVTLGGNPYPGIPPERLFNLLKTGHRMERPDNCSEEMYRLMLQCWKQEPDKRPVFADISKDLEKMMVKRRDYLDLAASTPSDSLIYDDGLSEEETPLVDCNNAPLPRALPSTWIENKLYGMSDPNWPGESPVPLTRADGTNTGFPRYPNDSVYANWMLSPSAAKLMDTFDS

[3] = tested on: spontaneous intestinal adenoma formation; assay: C57BL/6J-APC Min-mouse model of human adenomatous polyposis coli; format: in vivo, C57BL/6J-Apc min mice; settings: 100 mg/kg orally q.d., versus vehicle-treated group
Protocol: The ability of Compound 50 to inhibit angiogenesis and tumor growth was tested in a spontaneous tumor model. the pre-cancerous polyp formation in the mouse model of human intestinal tumorigenesis.
Transgenic C57BL/6J-Apc min mice heterozygous for a dominant nonsense Apc mutation are highly susceptible to spontaneous intestinal adenoma formation (homozygous mice are not viable). One hundred percent of these animals will develop polyps by 12 weeks of age. This model is widely used for studying prevention of intestinal adenoma formation and is well described in the literature (Yang K, Edelmann W, Fan K, et. al. A mouse model of human familial adenomatous polyposis. J Exp Zool. 1997 15; 277(3):245-54).
Female C57BL/6J-Apc^Min mice (Jackson Laboratory, MN), 5 weeks of age, were housed (up to 10 mice per group) for a minimum of one week. Animals were then sorted into treatment groups based on body weight such that the mean body weight for the animals in each group was approximately the same. Small cohorts of animals (n=6) were sacrificed at day 1, before treatment to get a baseline number of polyps (mean polyp number at beginning of study). […]
Animals in the treated group (n=10) were dosed daily with Compound 50 at 100 mg/kg orally q.d. for one week. […] The intestine of each mouse was excised, perfused, stained (0.01% Trypan Blue) and polyps were counted under 10× magnification.

T4 sequence (P04626 676-1255 limits assumed): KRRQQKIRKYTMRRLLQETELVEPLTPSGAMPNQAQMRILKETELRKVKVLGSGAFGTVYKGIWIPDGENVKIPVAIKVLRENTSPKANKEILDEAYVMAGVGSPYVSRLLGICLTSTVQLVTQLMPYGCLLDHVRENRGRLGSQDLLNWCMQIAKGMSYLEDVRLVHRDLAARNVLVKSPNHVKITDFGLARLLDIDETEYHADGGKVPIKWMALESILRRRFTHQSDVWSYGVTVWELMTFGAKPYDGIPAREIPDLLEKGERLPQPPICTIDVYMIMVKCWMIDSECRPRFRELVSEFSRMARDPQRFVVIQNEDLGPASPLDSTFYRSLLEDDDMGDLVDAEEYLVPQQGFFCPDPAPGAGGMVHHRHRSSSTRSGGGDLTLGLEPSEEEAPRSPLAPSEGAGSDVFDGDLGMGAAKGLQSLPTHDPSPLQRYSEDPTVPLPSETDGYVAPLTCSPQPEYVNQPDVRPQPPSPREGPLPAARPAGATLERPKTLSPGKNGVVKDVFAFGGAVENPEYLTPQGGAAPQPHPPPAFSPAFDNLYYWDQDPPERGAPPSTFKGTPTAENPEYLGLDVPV
T1 sequence (P06493 whole entry): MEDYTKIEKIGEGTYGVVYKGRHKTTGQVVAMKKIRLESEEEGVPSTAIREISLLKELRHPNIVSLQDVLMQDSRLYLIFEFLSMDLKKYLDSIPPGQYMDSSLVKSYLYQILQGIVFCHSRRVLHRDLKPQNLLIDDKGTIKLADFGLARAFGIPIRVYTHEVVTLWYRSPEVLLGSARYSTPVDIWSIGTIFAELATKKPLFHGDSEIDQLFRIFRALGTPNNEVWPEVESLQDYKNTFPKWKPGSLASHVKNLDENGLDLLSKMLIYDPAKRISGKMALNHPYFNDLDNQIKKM
T1 sequence (P14635 whole entry partner): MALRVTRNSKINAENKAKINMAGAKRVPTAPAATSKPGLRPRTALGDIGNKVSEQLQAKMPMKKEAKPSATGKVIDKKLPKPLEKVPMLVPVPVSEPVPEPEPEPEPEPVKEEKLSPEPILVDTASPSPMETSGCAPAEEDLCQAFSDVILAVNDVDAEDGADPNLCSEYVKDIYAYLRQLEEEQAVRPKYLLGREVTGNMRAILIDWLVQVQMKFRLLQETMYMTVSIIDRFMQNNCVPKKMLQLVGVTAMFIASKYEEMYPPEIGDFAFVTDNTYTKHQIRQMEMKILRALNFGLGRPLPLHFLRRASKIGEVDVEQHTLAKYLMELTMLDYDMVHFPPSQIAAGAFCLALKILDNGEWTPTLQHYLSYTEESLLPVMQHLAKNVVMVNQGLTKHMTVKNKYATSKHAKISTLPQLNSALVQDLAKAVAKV
T3 sequence (O08775 786-1343): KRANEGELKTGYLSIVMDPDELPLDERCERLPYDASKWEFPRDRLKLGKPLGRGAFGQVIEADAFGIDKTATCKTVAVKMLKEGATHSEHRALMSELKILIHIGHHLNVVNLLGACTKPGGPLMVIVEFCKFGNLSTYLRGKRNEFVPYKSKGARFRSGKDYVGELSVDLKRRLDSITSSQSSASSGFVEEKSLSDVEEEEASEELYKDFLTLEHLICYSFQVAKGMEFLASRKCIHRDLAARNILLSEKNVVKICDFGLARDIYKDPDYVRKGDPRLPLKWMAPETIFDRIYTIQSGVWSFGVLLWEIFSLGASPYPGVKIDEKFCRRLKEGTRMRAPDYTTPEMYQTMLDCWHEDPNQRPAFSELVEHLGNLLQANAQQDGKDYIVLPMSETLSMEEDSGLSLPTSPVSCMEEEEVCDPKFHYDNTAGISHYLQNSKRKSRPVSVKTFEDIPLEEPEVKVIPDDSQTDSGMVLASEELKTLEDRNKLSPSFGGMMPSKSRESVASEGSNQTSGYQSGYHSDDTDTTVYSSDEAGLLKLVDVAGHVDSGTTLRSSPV

What does the source list for `Cc1cc2c(F)c(Oc3ncnc(N)c3C=NOCCCN3CCN(S(C)(=O)=O)CC3)ccc2[nH]1` [Cpd 22, 4-amino-6-(4-fluoro-2-methyl-1H-indol-5-yloxy)-pyrimidine-5-carbaldehyde O-[3-(4-methanesulfonyl-piperazin-1-yl)-propyl]-oxime]?
IC50 (CDK1:Cyclin-B): > 100 µM; IC50 [1]: > 10 µM; IC50 (murine Aurora-A): > 100 µM; IC50 [2]: 0.045 µM; IC50 (HCT-116 colon carcinoma): > 10 µM; IC50 (A375 malignant melanoma): > 10 µM; IC50 (HER2 cytoplasmic domain): 1.41 µM; IC50 (RET cytoplasmic domain): 2.77 µM

With `CON=Cc1c(NOC)ncnc1Oc1ccc2[nH]ccc2c1` [Cpd 4, 4-(1H-indol-5-yloxy)-6-methoxyamino-pyrimidine-5-carbaldehyde O-methyl-oxime] as the compound, how does the IC50 (CDK1:Cyclin-B) read?
Its IC50 is > 100 µM.

And the IC50 [1]?
Its IC50 is > 10 µM.

And the IC50 (murine Aurora-A)?
Its IC50 is > 100 µM.

And the IC50 [2]?
Its IC50 is 4.77 µM.

What about the IC50 (HCT-116 colon carcinoma) of the same compound?
The IC50 was 38.3 µM.

What about the IC50 (A375 malignant melanoma) of the same compound?
Its IC50 is > 10 µM.

And the IC50 (HER2 cytoplasmic domain)?
The IC50 was > 10 µM.

And the IC50 (RET cytoplasmic domain)?
Its IC50 is ~100 µM.

What does the source list for `Cc1cc2c(F)c(Oc3ncnc(N)c3C=NOCCCN3CCCC3)ccc2[nH]1` [Cpd 18, 4-amino-6-(4-fluoro-2-methyl-1H-indol-5-yloxy)-pyrimidine-5-carbaldehyde O-(3-pyrrolidin-1-yl-propyl)-oxime]?
IC50 (CDK1:Cyclin-B): > 100 µM; IC50 [1]: 4.18 µM; IC50 (murine Aurora-A): > 10 µM; IC50 [2]: 0.065 µM; IC50 (HCT-116 colon carcinoma): 4.5 µM; IC50 (A375 malignant melanoma): 2.61 µM; IC50 (HER2 cytoplasmic domain): 1.49 µM; IC50 (RET cytoplasmic domain): 8.11 µM

Which results are given for `Cc1cc2c(F)c(Oc3ncnc(N)c3C=NOCCCN3CCOCC3)ccc2[nH]1` [Cpd 19, 4-amino-6-(4-fluoro-2-methyl-1H-indol-5-yloxy)-pyrimidine-5-carbaldehyde O-(3-morpholin-4-yl-propyl)-oxime]?
IC50 (CDK1:Cyclin-B): > 100 µM; IC50 [1]: 4.91 µM; IC50 (murine Aurora-A): > 100 µM; IC50 [2]: ~0.1 µM; IC50 (HCT-116 colon carcinoma): 9.24 µM; IC50 (A375 malignant melanoma): 3.82 µM; IC50 (HER2 cytoplasmic domain): 1.23 µM; IC50 (RET cytoplasmic domain): 3.58 µM

For `CC(=O)N1CCN(CCCON=Cc2c(N)ncnc2Oc2ccc3[nH]c(C)cc3c2F)CC1` [Cpd 23, 4-amino-6-(4-fluoro-2-methyl-1H-indol-5-yloxy)-pyrimidine-5-carbaldehyde O-[3-(4-acetyl-piperazin-1-yl)-propyl]-oxime], which IC50 (CDK1:Cyclin-B) is on record?
The IC50 was > 100 µM.

And the IC50 [1]?
Its IC50 is > 10 µM.

What about the IC50 (murine Aurora-A) of the same compound?
The IC50 was > 100 µM.

What about the IC50 [2] of the same compound?
The IC50 was 0.082 µM.

What about the IC50 (HCT-116 colon carcinoma) of the same compound?
Its IC50 is > 10 µM.

What about the IC50 (A375 malignant melanoma) of the same compound?
Its IC50 is > 10 µM.

And the IC50 (HER2 cytoplasmic domain)?
The IC50 was 1.78 µM.

And the IC50 (RET cytoplasmic domain)?
The IC50 was 8.32 µM.

Which results are given for `CCNC(=O)Nc1ccc(Oc2ncnc(N)c2C=NOC)cc1` [Cpd 69, 1-{4-[6-amino-5-(methoxyimino-methyl)-pyrimidin-4-yloxy]-phenyl}-3-ethyl-urea]?
IC50 (CDK1:Cyclin-B): > 100 µM; IC50 [1]: > 10 µM; IC50 (murine Aurora-A): > 10 µM; IC50 [2]: 0.142 µM; IC50 (HCT-116 colon carcinoma): > 10 µM; IC50 (A375 malignant melanoma): > 10 µM; IC50 (HER2 cytoplasmic domain): > 100 µM; IC50 (RET cytoplasmic domain): > 10 µM

How did the IC50 (CDK1:Cyclin-B) turn out when `Cc1cc2c(F)c(Oc3ncnc(N)c3/C=N/O)ccc2[nH]1` [Cpd 27, 4-amino-6-(4-fluoro-2-methyl-1H-indol-5-yloxy)-pyrimidine-5-carbaldehyde oxime] was run?
The IC50 was > 100 µM.

And the IC50 [1]?
The IC50 was 0.472 µM.

What about the IC50 (murine Aurora-A) of the same compound?
Its IC50 is ~10 µM.

And the IC50 [2]?
Its IC50 is 0.033 µM.

What about the IC50 (HCT-116 colon carcinoma) of the same compound?
The IC50 was 1.14 µM.

What about the IC50 (A375 malignant melanoma) of the same compound?
Its IC50 is 0.492 µM.

And the IC50 (HER2 cytoplasmic domain)?
The IC50 was ~10 µM.

What about the IC50 (RET cytoplasmic domain) of the same compound?
Its IC50 is > 10 µM.

Which results are given for `CCNC(=O)Nc1ccc(Oc2ncnc(N)c2C=NOC)cc1C` [Cpd 66, 1-{4-[6-amino-5-(methoxyimino-methyl)-pyrimidin-4-yloxy]-2-methyl-phenyl}-3-ethyl-urea]?
IC50 (CDK1:Cyclin-B): > 100 µM; IC50 [1]: > 100 µM; IC50 (murine Aurora-A): > 100 µM; IC50 [2]: 0.18 µM; IC50 (HCT-116 colon carcinoma): > 100 µM; IC50 (A375 malignant melanoma): > 100 µM; IC50 (HER2 cytoplasmic domain): > 100 µM; IC50 (RET cytoplasmic domain): > 10 µM

Which IC50 (CDK1:Cyclin-B) does the source give for `CNC(=O)Nc1ccc(Oc2ncnc(N)c2C=NOC)cc1` [Cpd 68, 1-{4-[6-amino-5-(methoxyimino-methyl)-pyrimidin-4-yloxy]-phenyl}-3-methyl-urea] here?
The IC50 was > 100 µM.

What about the IC50 [1] of the same compound?
The IC50 was > 10 µM.

What about the IC50 (murine Aurora-A) of the same compound?
The IC50 was > 10 µM.

What about the IC50 [2] of the same compound?
Its IC50 is 0.233 µM.

What about the IC50 (HCT-116 colon carcinoma) of the same compound?
Its IC50 is > 10 µM.

And the IC50 (A375 malignant melanoma)?
Its IC50 is > 10 µM.

What about the IC50 (HER2 cytoplasmic domain) of the same compound?
Its IC50 is > 100 µM.

And the IC50 (RET cytoplasmic domain)?
The IC50 was > 10 µM.

`CNC(=O)n1c(C)cc2cc(Oc3ncnc(N)c3C=NOC)ccc21` [Cpd 49, 5-[6-amino-5-(methoxyimino-methyl)-pyrimidin-4-yloxy]-2-methyl-indole-1-carboxylic acid methylamide] was tested. Which IC50 (CDK1:Cyclin-B) did it give?
Its IC50 is > 100 µM.

And the IC50 [1]?
The IC50 was 2.98 µM.

And the IC50 (murine Aurora-A)?
Its IC50 is > 100 µM.

What about the IC50 [2] of the same compound?
The IC50 was 0.001 µM.

What about the IC50 (HCT-116 colon carcinoma) of the same compound?
Its IC50 is 3.14 µM.

What about the IC50 (A375 malignant melanoma) of the same compound?
Its IC50 is 1.39 µM.

And the IC50 (HER2 cytoplasmic domain)?
The IC50 was ~100 µM.

And the IC50 (RET cytoplasmic domain)?
The IC50 was ~10 µM.

“1-{4-[6-amino-5-(methoxyimino-methyl)-pyrimidin-4-yloxy]-2-chloro-phenyl}-3-ethyl-urea [Cpd 50]” was tested. Which “body weights at study end” value [3] did it give?
The value was “comparable”.
